Results on three compounds are retold here after patent US6677381B1 (Jame Fine Chemicals, Inc., priority 2001, dated 2004).

The nature of data set [1]: Solubility in water and organic solvents. The format is physicochemical. From the text: The guaifenesin tannate of the invention is a light-tan colored powder which is soluble in water and alcohols, but is insoluble in methylene chloride, chloroform or toluene. […]
The conditions of data set [2]: cited from earlier work; for solubility in alcohols: alcohols such as methanol, ethanol, isopropanol.

Where two headings read alike, the source gives them in different places.

Regarding `COc1ccccc1OCC(O)CO` (centres unmarked) [guaifenesin, 3-(2-methoxyphenoxy)-1,2-propanediol], in data set [1], the solubility in alcohols entry is on record as “soluble”, the solubility in toluene result is reported as “sparingly soluble” and the solubility in water entry is given as “soluble”. In addition, in data set [2], the solubility in alcohols entry is on record as “readily soluble” and the solubility in water entry is on record as “about 5 wt. %”.

Regarding guaifenesin tannate, the solubility in alcohols entry in data set [1] (alcohols, physical properties comparison) is “soluble”. Moreover, the solubility in chloroform result in data set [1] (chloroform) was “insoluble”. Also, the “solubility in methylene chloride” value in data set [1] (methylene chloride) was “insoluble”. Further, the solubility in toluene entry in data set [1] (toluene) is on record as “insoluble”. For the same compound, the solubility in water entry in data set [1] (water, physical properties comparison) was “soluble”.

With `O=C(OC[C@H]1O[C@@H](OC(=O)c2cc(O)c(O)c(OC(=O)c3cc(O)c(O)c(O)c3)c2)[C@H](OC(=O)c2cc(O)c(O)c(OC(=O)c3cc(O)c(O)c(O)c3)c2)[C@@H](OC(=O)c2cc(O)c(O)c(OC(=O)c3cc(O)c(O)c(O)c3)c2)[C@@H]1OC(=O)c1cc(O)c(O)c(OC(=O)c2cc(O)c(O)c(O)c2)c1)c1cc(O)c(O)c(OC(=O)c2cc(O)c(O)c(O)c2)c1` [tannic acid], in data set [1], the solubility in alcohols entry is “soluble”, the solubility in chloroform result is reported as “insoluble”, the “solubility in methylene chloride” value is listed as “insoluble” and the solubility in toluene entry was “insoluble”. Also, the solubility in water entry in data set [1] is recorded as “soluble”. Besides, the solubility in alcohols entry in data set [2] was “highly soluble”. The solubility in water result in data set [2] (in words) was “highly soluble”.
